Legend:
[1] = Displacement of [3H]SCH 23390 from dopamine D1 receptor in lamb striatum membrane after 1 hr
[2] = Displacement of [3H]YM 09151-2 from dopamine D2 receptor in lamb striatum membrane after 2 hrs
[3] = Displacement of [3H]R-PIA from adenosine A1 receptor in lamb striatum membrane after 1 hr

Row | SMILES | Kd [1] | Kd [2] | Kd [3]
1 | CN1C[C@H](C(=O)N[C@@H](Cc2ccc([N+](=O)[O-])cc2)C(=O)N[C@@H](Cc2ccc(F)cc2)C(=O)N2CCCC(C(N)=O)C2)C=C2c3cccc4[nH]cc(c34)C[C@H]21 (stereo partly drawn) [(6aR,9R)-N-((S)-1-((S)-1-(3-carbamoylpiperidin-1-yl)-3-(4-fluorophenyl)-1-oxopropan-2-ylamino)-3-(4-nitrophenyl)-1-oxopropan-2-yl)-7-methyl-4,6,6a,7,8,9-hexahydroindolo[4,3-fg]quinoline-9-carboxamide] | 700 nM | 20 nM | 
2 | CC(C)[C@H](NC(=O)[C@H](Cc1ccc([N+](=O)[O-])cc1)NC(=O)[C@@H]1C=C2c3cccc4[nH]cc(c34)C[C@H]2N(C)C1)C(=O)N1c2ccccc2C[C@H]1C(N)=O [(6aR,9R)-N-((S)-1-((S)-1-((S)-2-carbamoylindolin-1-yl)-3-methyl-1-oxobutan-2-ylamino)-3-(4-nitrophenyl)-1-oxopropan-2-yl)-7-methyl-4,6,6a,7,8,9-hexahydroindolo[4,3-fg]quinoline-9-carboxamide] |  | 2000 nM | 100 nM
3 | CC(C)[C@H](NC(=O)[C@@H]1C=C2c3cccc4[nH]cc(c34)C[C@H]2N(C)C1)C(=O)N[C@@H](Cc1ccc(F)cc1)C(=O)N1CCC[C@H]1C(N)=O [(6aR,9R)-N-((S)-1-((S)-1-((S)-2-carbamoylpyrrolidin-1-yl)-3-(4-fluorophenyl)-1-oxopropan-2-ylamino)-3-methyl-1-oxobutan-2-yl)-7-methyl-4,6,6a,7,8,9-hexahydroindolo[4,3-fg]quinoline-9-carboxamide] | 600 nM | 16000 nM | 
4 | CC(C)[C@H](NC(=O)[C@@H]1C=C2c3cccc4[nH]cc(c34)C[C@H]2N(C)C1)C(=O)N[C@@H](Cc1ccc([N+](=O)[O-])cc1)C(=O)N1CCC[C@H]1C(N)=O [(6aR,9R)-N-((S)-1-((S)-1-((S)-2-carbamoylpyrrolidin-1-yl)-3-(4-nitrophenyl)-1-oxopropan-2-ylamino)-3-methyl-1-oxobutan-2-yl)-7-methyl-4,6,6a,7,8,9-hexahydroindolo[4,3-fg]quinoline-9-carboxamide] | 7800 nM |  | 
5 | CC(C)[C@H](NC(=O)[C@H](CCC1CCCCC1)NC(=O)[C@@H]1C=C2c3cccc4[nH]cc(c34)C[C@H]2N(C)C1)C(=O)N1CCC[C@H]1C(N)=O [(6aR,9R)-N-((S)-1-((S)-1-((S)-2-carbamoylpyrrolidin-1-yl)-3-methyl-1-oxobutan-2-ylamino)-4-cyclohexyl-1-oxobutan-2-yl)-7-methyl-4,6,6a,7,8,9-hexahydroindolo[4,3-fg]quinoline-9-carboxamide] | 1200 nM |  | 
6 | CC(C)[C@H](NC(=O)[C@H]1C=C2c3cccc4[nH]cc(c34)C[C@H]2N(C)C1)C(=O)N[C@@H](Cc1ccc([N+](=O)[O-])cc1)C(=O)N1CCC[C@H]1C(N)=O [(6aR,9S)-N-((S)-1-((S)-1-((S)-2-carbamoylpyrrolidin-1-yl)-3-(4-nitrophenyl)-1-oxopropan-2-ylamino)-3-methyl-1-oxobutan-2-yl)-7-methyl-4,6,6a,7,8,9-hexahydroindolo[4,3-fg]quinoline-9-carboxamide] | 700 nM |  | 

Reference: BindingDB's records for doi:10.1021/jm060947x (Institut D'Investigacions Biomèdiques August Pi I, 2007)
